Consider seven molecules from patent US7202057B2 (Ortho-McNeil Pharmaceutical, Inc., priority 2000, dated 2007).

For test [1], the target named is T1, guinea pig histamine H4 receptor (Cavia porcellus, UniProt Q91ZY3). To be noted: read-out: Guinea Pig Ki.
Test [2] has as its target T2, human histamine H4 receptor (Homo sapiens, UniProt Q9H3N8).
Test [3] addresses T2, human histamine H4 receptor. To be noted: pH 4.
In test [4] the target is T1, guinea pig histamine H4 receptor. To be noted: read-out: ^3H-histamine Kd.

Structures are written as SMILES.

In general, Ki refers to a measure of affinity in units of concentration, obtained from inhibition or displacement. As usually defined, the Kd is the free concentration of one partner at which half of the binding sites on the other are occupied at equilibrium, for simple one-to-one binding.

T2 sequence (Q9H3N8 whole entry): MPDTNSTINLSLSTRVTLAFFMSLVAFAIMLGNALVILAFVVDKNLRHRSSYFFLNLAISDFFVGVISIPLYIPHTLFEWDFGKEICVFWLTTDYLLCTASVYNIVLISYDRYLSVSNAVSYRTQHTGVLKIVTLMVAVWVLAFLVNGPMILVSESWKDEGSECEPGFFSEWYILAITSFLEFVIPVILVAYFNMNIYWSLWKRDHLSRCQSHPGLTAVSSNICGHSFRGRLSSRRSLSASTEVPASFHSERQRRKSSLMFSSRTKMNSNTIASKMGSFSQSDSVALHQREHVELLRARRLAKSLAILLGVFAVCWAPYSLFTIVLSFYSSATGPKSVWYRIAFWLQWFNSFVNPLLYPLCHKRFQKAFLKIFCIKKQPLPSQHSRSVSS

For the molecule `NC(=NCc1ccc(Cl)cc1)SCCCc1cnc[nH]1` [Clobenpropit], the Ki in test [1] amounted to 3.6 nM.

In the case of `NCCc1c[nH]cn1` [Histamine], in test [1], the Ki was found to be 27 nM. In test [2], the “Activation of the receptor (decrease of forskolin-raised cAMP)” value is reported as “specifically activated”.

As for `N=C(N)SCCc1cnc[nH]1` [Imetit], in test [1], the Ki is 30 nM.

In the case of `CNCCc1c[nH]cn1` [N-methylhistamine], the Ki in test [1] worked out at 220 nM.

Regarding `C[C@@H](N)Cc1c[nH]cn1` [R-α-methylhistamine], in test [1], the Ki worked out at 486 nM.

Regarding `S=C(NC1CCCCC1)N1CCC(c2cnc[nH]2)CC1` [Thioperamide], the Ki in test [1] was 83 nM.

On to `NCCc1cnc[nH]1` [^3H-histamine], for which the “Binding affinity in words” value in test [3] is given as “high affinity”. For the same molecule, the Kd in test [4] worked out at 20 nM.
